The target in experiment [1] is T1, SRSF1 (recombinant SRSF1; serine arginine-rich splicing factor 1) (Homo sapiens, UniProt Q07955).
T1 construct: recombinant purified SRSF1; RRM1 domain targeted in screening
The experiment is described as follows: SPR. Format: binding. The conditions noted are these: purified SRSF1 variant; unit inferred, M taken from the wild-type value.

Experiment [2] addresses T1, SRSF1 (recombinant SRSF1; serine arginine-rich splicing factor 1). As to the kind of experiment: SPR (Biacore T100). Format: binding.

T1 sequence (Q07955 2-248): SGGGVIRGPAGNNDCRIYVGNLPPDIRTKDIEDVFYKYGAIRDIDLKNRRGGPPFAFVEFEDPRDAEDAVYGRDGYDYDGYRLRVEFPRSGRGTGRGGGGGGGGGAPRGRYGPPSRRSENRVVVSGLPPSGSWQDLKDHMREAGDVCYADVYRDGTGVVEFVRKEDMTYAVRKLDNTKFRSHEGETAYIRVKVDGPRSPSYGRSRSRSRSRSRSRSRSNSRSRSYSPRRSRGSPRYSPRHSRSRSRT

As for `O=C(/C=C/c1ccc(O)c(O)c1)c1ccc(O)c(O)c1O` [TN2008], the equilibrium dissociation constant (Kd) in experiment [1] was determined as 37.2 µM; in experiment [2] it was 5.13 µM.

One may read the Kd as the equilibrium constant for the complex coming apart.

The values above are taken from publication PMC11751439, “Targeting SRSF1 improves cancer immunotherapy by dually acting on CD8^+T and tumor cells” (Signal Transduction and Targeted Therapy, 2025).
